Data: patent publication US10112945B2, “Fused quinoline compunds as PI3K, mTOR inhibitors” (ADVENCHEN PHARMACEUTICALS, NANJING LTD., priority 2014, dated 2018)

Assays:
mTor = biological target: T1, mTor (Homo sapiens, UniProt P42345); assay: In vitro kinase inhibition, mTor (Millipore/Merck kinases panel screening); type: biochemical; details: compound at 0.03 μM
T1 construct: purchased Millipore/Merck KGA
Method: (§1) In vitro kinase inhibition activities included Pi3k and mTor activities can be tested with Millipore/Merck KGA of Europe in their kinases panel screening. Animal antitumor activity testing can be conducted by various cancer xenograft models for a compound of formula I.
(§2) The following compounds or a pharmaceutically acceptable salt thereof, but not limited, can also be prepared similarly according to the methods described in Scheme I-Scheme II. They are also tested for the inhibitions on mTor or pi3k kinases, or tumor cell lines.

pi3K = assay: In vitro kinase inhibition, pi3K (Millipore/Merck kinases panel screening); type: biochemical; details: compound at 0.03 μM
Method: as §1, §2

Row | activity at 0.03 µM (mTor; scaffold drawing 7 series) | pi3K % activity @0.03 μM (pi3K; scaffold drawing 7 series) | activity at 0.03 µM (mTor; scaffold drawing 34 series) | pi3K % activity @0.03 μM (pi3K; scaffold drawing 34 series) | Molecule | mTor % activity @0.03 μM (mTor; scaffold drawing 7 series)
1 | 11% | 84% | – | – | FC(F)(F)c1cc(-n2c3c4cc(-c5cnc6ccccc6c5)ccc4ncc3n3cnnc23)ccc1Cl [3-quinoline, 4-Cl, H, 16-[4-chloro-3-(trifluoromethyl)phenyl]-4-(quinolin-3-yl)-8,11,13,14,16-pentaazatetracyclo-[8.6.0.0^2,7.0^11,15]hexadeca-1(10),2,4,6,8,12,14-heptaene] | –
2 | -5% | 68% | – | – | FC(F)(F)c1cccc(-n2c3c4cc(-c5cnc6ccccc6c5)ccc4ncc3n3cnnc23)c1 [3-quinoline, H, H, 4-(quinolin-3yl)-16-[3-(trifluoromethyl)phenyl]-8,11,13,14,16-pentaazatetracyclo-[8.6.0.0^2,7.0^11,15]hexadeca-1(10),2,4,6,8,12,14-heptaene] | –
3 | – | – | 68% | 99% | FC(F)(F)c1ccc(-n2c3c4cc(-c5cnc6ccccc6c5)ccc4ncc3n3cnnc23)cc1 [3-quinoline, H, H, 4-(quinolin-3yl)-16-[4-(trifluoromethyl)phenyl]-8,11,13,14,16-pentaazatetracyclo-[8.6.0.0^2,7.0^11,15]hexadeca-1(10),2,4,6,8,12,14-heptaene] | –
4 | -19% | 38% | – | – | Nc1ccc(-c2ccc3ncc4c(c3c2)n(-c2ccc(Cl)c(C(F)(F)F)c2)c2nncn42)cn1 [5-pyridin-2-amine, 4-Cl, H, 5-{16-[4-chloro-3-(trifluoromethyl)phenyl]-8,11,13,14,16-pentaazatetracyclo-[8.6.0.0^2,7.0^11,15]hexadeca-1(10),2,4,6,8,12,14-heptaen-4-yl}pyridin-2-amine] | –
5 | -5% | 87% | – | – | COCCNc1ccc(-c2ccc3ncc4c(c3c2)n(-c2ccc(Cl)c(C(F)(F)F)c2)c2nncn42)cn1 [5-{16-[4-chloro-3-(trifluoromethyl)phenyl]-8,11,13,14,16-pentaazatetracyclo[8.6.0.0^2,7.0^11,15]-hexadeca-1(10),2,4,6,8,12,14-heptaen-4-yl}-N-(2-methoxyethyl)pyridin-2-amine] | –
6 | 20% | 93% | – | – | FC(F)(F)c1cc(-n2c3c4cc(-c5ccc(NCCN6CCOCC6)nc5)ccc4ncc3n3cnnc23)ccc1Cl [5-{16-[4-chloro-3-(trifluoromethyl)phenyl]-8,11,13,14,16-pentaazatetracyclo[8.6.0.0^2,7.0^11,15]-hexadeca-1(10),2,4,6,8,12,14-heptaen-4-yl}-N-[2-(morpholin-4-yl)ethyl]pyridin-2-amine] | –
7 | 15% | 98% | – | – | FC(F)(F)c1cc(-n2c3c4cc(-c5ccc(NCCN6CCCC6)nc5)ccc4ncc3n3cnnc23)ccc1Cl [5-{16-[4-chloro-3-(trifluoromethyl)phenyl]-8,11,13,14,16-pentaazatetracyclo[8.6.0.0^2,7.0^11,15]-hexadeca-1(10),2,4,6,8,12,14-heptaen-4-yl}-N-[2-(pyrrolidin-1-yl)ethyl]pyridin-2-amine] | –
8 | -3% | 92% | – | – | COCCNc1ccc(-c2ccc3ncc4c(c3c2)n(-c2cccc(C(F)(F)F)c2)c2nncn42)cn1 [N-(2-methoxyethyl)-5-{16-[3-(trifluoromethyl)phenyl]-8,11,13,14,16-pentaazatetracyclo-[8.6.0.0^2,7.0^11,15]-hexadeca-1(10),2,4,6,8,12,14-heptaen-4-yl}pyridin-2-amine] | –
9 | -4% | 74% | – | – | CN1CCN(CC(=O)Nc2ccc(-c3ccc4ncc5c(c4c3)n(-c3ccc(Cl)c(C(F)(F)F)c3)c3nncn53)cn2)CC1 [N-(5-{16-[4-chloro-3-(trifluoromethyl)phenyl]-8,11,13,14,16-pentaazatetracyclo[8.6.0.0^2,7.0^11,15]-hexadeca-1(10),2,4,6,8,12,14-heptaen-4-yl}pyridin-2-yl)-2-(4-methylpiperazin-1-yl)acetamide] | –
10 | 17% | 82% | – | – | O=C(CN1CCOCC1)Nc1ccc(-c2ccc3ncc4c(c3c2)n(-c2ccc(Cl)c(C(F)(F)F)c2)c2nncn42)cn1 [N-(5-{16-[4-chloro-3-(trifluoromethyl)phenyl]-8,11,13,14,16-pentaazatetracyclo[8.6.0.0^2,7.0^11,15]-hexadeca-1(10),2,4,6,8,12,14-heptaen-4-yl}pyridin-2-yl)-2-(morpholin-4-yl)acetamide] | –
11 | 4% | 82% | – | – | O=C(CN1CCCC1)Nc1ccc(-c2ccc3ncc4c(c3c2)n(-c2ccc(Cl)c(C(F)(F)F)c2)c2nncn42)cn1 [N-(5-{16-[4-chloro-3-(trifluoromethyl)phenyl]-8,11,13,14,16-pentaazatetracyclo[8.6.0.0^2,7.0^11,15]-hexadeca-1(10),2,4,6,8,12,14-heptaen-4-yl}pyridin-2-yl)-2-(pyrrolidin-1-yl)acetamide] | –
12 | 4% | 101% | – | – | FC(F)(F)c1cccc(-n2c3c4cc(-c5ccc(NCCN6CCCC6)nc5)ccc4ncc3n3cnnc23)c1 [N-[2-(pyrrolidin-1-yl)ethyl]-5-{16-[3-(trifluoromethyl)phenyl]-8,11,13,14,16-pentaazatetracyclo-[8.6.0.0^2,7.0^11,15]-hexadeca-1(10),2,4,6,8,12,14-heptaen-4-yl}pyridin-2-amine] | –

Row | Molecule | activity at 0.03 µM (mTor; scaffold drawing 7 series) | pi3K % activity @0.03 μM (pi3K; scaffold drawing 7 series) | activity at 0.03 µM (mTor; scaffold drawing 34 series) | pi3K % activity @0.03 μM (pi3K; scaffold drawing 34 series) | mTor % activity @0.03 μM (mTor; scaffold drawing 7 series)
13 | N-[2-(morpholin-4-yl)ethyl]-5-{16-[3-(trifluoromethyl)phenyl]-8,11,13,14,16-pentaazatetra-cyclo[8.6.0.0^2,7.0^11,15]hexadeca-1(10),2,4,6,8,12,14-heptaen-4-yl}pyridin-2-amine | – | 94% | – | – | 43%
